Biological target: T1, BRM (Homo sapiens, UniProt P51531)
T1 construct: In-Cell Western Screen of BRM Degradation in SW1573 Cells; endogenous in cells; host or cells: SW1573
Assay: In-cell Western screen of BRM degradation in SW1573 cells (Dmax and DC50)
Type: cell-based
Settings: for DC50: target protein degradation, read-out: BRM DC50; for Dmax: SW1573, read-out: BRM Dmax (%)
In short: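 SW1573 cells were treated overnight (18-20 hours) with compound at 0.1% final DMSO. They were then PFA-fixed, permeabilised with Triton X-100 and immunostained with 800 nm/680 nm secondary antibodies. BRM signal was quantified by LI-COR in-cell Western imaging to derive Dmax and DC50.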

[1] = % degraded, when tested at the top concentration of between 0.3 and 10 μM

T1 sequence (P51531 whole entry): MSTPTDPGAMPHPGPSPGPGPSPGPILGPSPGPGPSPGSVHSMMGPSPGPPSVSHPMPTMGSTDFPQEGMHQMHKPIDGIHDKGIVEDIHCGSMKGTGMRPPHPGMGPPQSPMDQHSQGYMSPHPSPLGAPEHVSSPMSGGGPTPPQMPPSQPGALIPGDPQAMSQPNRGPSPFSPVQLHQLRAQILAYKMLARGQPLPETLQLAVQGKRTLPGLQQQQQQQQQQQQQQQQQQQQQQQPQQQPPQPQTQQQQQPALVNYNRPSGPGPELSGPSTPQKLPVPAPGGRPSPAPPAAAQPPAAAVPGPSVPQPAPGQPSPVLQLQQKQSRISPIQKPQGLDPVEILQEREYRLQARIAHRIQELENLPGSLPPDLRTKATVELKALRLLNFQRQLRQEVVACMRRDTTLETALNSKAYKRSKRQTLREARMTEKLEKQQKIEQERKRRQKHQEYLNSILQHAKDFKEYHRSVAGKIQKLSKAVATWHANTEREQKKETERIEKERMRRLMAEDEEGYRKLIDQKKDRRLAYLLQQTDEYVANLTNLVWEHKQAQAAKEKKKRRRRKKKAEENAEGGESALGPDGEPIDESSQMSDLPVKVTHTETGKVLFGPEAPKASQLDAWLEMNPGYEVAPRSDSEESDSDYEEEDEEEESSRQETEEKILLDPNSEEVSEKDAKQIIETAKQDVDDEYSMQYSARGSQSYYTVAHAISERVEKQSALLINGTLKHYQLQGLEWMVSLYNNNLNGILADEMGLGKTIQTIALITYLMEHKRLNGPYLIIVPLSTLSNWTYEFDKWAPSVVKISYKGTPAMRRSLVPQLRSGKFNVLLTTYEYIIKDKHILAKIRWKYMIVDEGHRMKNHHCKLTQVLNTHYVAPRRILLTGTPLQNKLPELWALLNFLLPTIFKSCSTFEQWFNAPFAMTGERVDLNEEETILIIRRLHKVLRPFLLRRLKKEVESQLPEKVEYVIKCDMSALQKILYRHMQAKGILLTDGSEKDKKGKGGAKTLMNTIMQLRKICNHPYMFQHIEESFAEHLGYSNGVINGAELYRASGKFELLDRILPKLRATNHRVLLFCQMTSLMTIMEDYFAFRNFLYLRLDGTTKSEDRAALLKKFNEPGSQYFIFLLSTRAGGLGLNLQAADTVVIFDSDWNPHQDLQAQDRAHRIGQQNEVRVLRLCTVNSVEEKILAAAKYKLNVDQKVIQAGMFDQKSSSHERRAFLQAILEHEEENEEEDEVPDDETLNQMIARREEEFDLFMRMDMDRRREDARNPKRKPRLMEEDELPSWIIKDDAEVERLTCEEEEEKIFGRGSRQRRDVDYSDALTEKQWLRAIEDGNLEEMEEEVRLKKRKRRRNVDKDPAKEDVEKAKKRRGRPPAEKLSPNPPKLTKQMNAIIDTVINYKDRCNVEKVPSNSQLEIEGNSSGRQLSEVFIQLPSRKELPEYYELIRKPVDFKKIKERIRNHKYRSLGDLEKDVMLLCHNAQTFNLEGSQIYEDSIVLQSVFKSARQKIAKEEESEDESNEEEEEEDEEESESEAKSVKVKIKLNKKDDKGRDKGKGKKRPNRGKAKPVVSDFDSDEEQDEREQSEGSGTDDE

Row | SMILES | BRM Dmax (%) [1] | DC50 [nM] | Dmax [1] [%]
1 | Cc1ncsc1-c1ccc([C@H](C)NC(=O)[C@@H]2C[C@@H](O)CN2C(=O)[C@@H](c2cc(OCC#CC34CC(CN[C@H]5C[C@H](Oc6cc(N7C8CC[C@@H]7CN(c7cc(-c9ccccc9O)nnc7N)C8)ccn6)C5)(C3)C4)no2)C(C)C)cc1 [compound 382, (2S,4R)-1-((2R)-2-(3-((3-(3-((((1r,3R)-3-((4-(3-(3-amino-6-(2-hydroxyphenyl)pyridazin-4-yl)-3,8-diazabicyclo[3.2.1]octan-8-yl)pyridin-2-yl)oxy)cyclobutyl)amino)methyl)bicyclo[1.1.1]pentan-1-yl)prop-2-yn-1-yl)oxy)isoxazol-5-yl)-3-methylbutanoyl)-4-hydroxy-N-((S)-1-(4-(4-methylthiazol-5-yl)phenyl)ethyl)pyrrolidine-2-carboxamide] | A (A > 75) | < 2.5 | –
2 | Cc1ncsc1-c1ccc([C@H](C)NC(=O)[C@@H]2C[C@@H](O)CN2C(=O)[C@@H](c2cc(OCC#CC34CC(CN5CC(Oc6cc(N7C8CCC7CN(c7cc(-c9ccccc9O)nnc7N)C8)ccn6)C5)(C3)C4)no2)C(C)C)cc1 [compound 383, (2S,4R)-1-((2R)-2-(3-((3-(3-((3-((4-(3-(3-amino-6-(2-hydroxyphenyl)pyridazin-4-yl)-3,8-diazabicyclo[3.2.1]octan-8-yl)pyridin-2-yl)oxy)azetidin-1-yl)methyl)bicyclo[1.1.1]pentan-1-yl)prop-2-yn-1-yl)oxy)isoxazol-5-yl)-3-methylbutanoyl)-4-hydroxy-N-((S)-1-(4-(4-methylthiazol-5-yl)phenyl)ethyl)pyrrolidine-2-carboxamide] | – | > 30 | > 75
3 | Cc1ncsc1-c1ccc([C@H](C)NC(=O)[C@@H]2C[C@@H](O)CN2C(=O)[C@H](c2cc(OCCCN3CCN(CCCOc4cc(N5C6CCC5CN(c5cc(-c7ccccc7O)nnc5N)C6)ccn4)CC3)no2)C(C)C)cc1 [compound 384, (2S,4R)-1-((2S)-2-(3-(3-(4-(3-((4-(3-(3-amino-6-(2-hydroxyphenyl)pyridazin-4-yl)-3,8-diazabicyclo[3.2.1]octan-8-yl)pyridin-2-yl)oxy)propyl)piperazin-1-yl)propoxy)isoxazol-5-yl)-3-methylbutanoyl)-4-hydroxy-N-((S)-1-(4-(4-methylthiazol-5-yl)phenyl)ethyl)pyrrolidine-2-carboxamide] | – | 2.5 to 10 | > 75
4 | Cc1ncsc1-c1ccc([C@H](C)NC(=O)[C@@H]2C[C@@H](O)CN2C(=O)[C@@H](c2cc(OCCCN3CCN(CCCOc4cc(N5C6CCC5CN(c5cc(-c7ccccc7O)nnc5N)C6)ccn4)CC3)no2)C(C)C)cc1 [compound 385, (2S,4R)-1-((2R)-2-(3-(3-(4-(3-((4-(3-(3-amino-6-(2-hydroxyphenyl)pyridazin-4-yl)-3,8-diazabicyclo[3.2.1]octan-8-yl)pyridin-2-yl)oxy)propyl)piperazin-1-yl)propoxy)isoxazol-5-yl)-3-methylbutanoyl)-4-hydroxy-N-((S)-1-(4-(4-methylthiazol-5-yl)phenyl)ethyl)pyrrolidine-2-carboxamide] | – | < 2.5 | > 75
5 | CC(C)[C@H](C(=O)N1C[C@H](O)C[C@H]1C(=O)N[C@@H](C)c1ccc(C#N)cc1)c1cc(OCC#Cc2ncc(O[C@H]3C[C@H](Oc4cc(N5C6CCC5CN(c5cc(-c7ccccc7O)nnc5N)C6)ccn4)C3)cn2)no1 [compound 386, (2S,4R)-1-((2S)-2-(3-((3-(5-((1r,3S)-3-((4-(3-(3-amino-6-(2-hydroxyphenyl)pyridazin-4-yl)-3,8-diazabicyclo[3.2.1]octan-8-yl)pyridin-2-yl)oxy)cyclobutoxy)pyrimidin-2-yl)prop-2-yn-1-yl)oxy)isoxazol-5-yl)-3-methylbutanoyl)-N-((S)-1-(4-cyanophenyl)ethyl)-4-hydroxypyrrolidine-2-carboxamide] | – | 10 to 30 | > 75
6 | CC(C)[C@@H](C(=O)N1C[C@H](O)C[C@H]1C(=O)N[C@@H](C)c1ccc(C#N)cc1)c1cc(OCC#Cc2ncc(O[C@H]3C[C@H](Oc4cc(N5C6CCC5CN(c5cc(-c7ccccc7O)nnc5N)C6)ccn4)C3)cn2)no1 [compound 387, (2S,4R)-1-((2R)-2-(3-((3-(5-((1r,3R)-3-((4-(3-(3-amino-6-(2-hydroxyphenyl)pyridazin-4-yl)-3,8-diazabicyclo[3.2.1]octan-8-yl)pyridin-2-yl)oxy)cyclobutoxy)pyrimidin-2-yl)prop-2-yn-1-yl)oxy)isoxazol-5-yl)-3-methylbutanoyl)-N-((S)-1-(4-cyanophenyl)ethyl)-4-hydroxypyrrolidine-2-carboxamide] | – | < 2.5 | > 75
7 | Cc1ncsc1-c1ccc([C@H](C)NC(=O)[C@@H]2C[C@@H](O)CN2C(=O)[C@@H](c2cc(OCCN[C@H]3CC[C@@H](O[C@H]4C[C@@H](Oc5cc(N6C7CCC6CN(c6cc(-c8ccccc8O)nnc6N)C7)ccn5)C4)CC3)no2)C(C)C)cn1 [compound 388, (2S,4R)-1-((2R)-2-(3-(2-(((1S,4S)-4-((1r,3S)-3-((4-(3-(3-amino-6-(2-hydroxyphenyl)pyridazin-4-yl)-3,8-diazabicyclo[3.2.1]octan-8-yl)pyridin-2-yl)oxy)cyclobutoxy)cyclohexyl)amino)ethoxy)isoxazol-5-yl)-3-methylbutanoyl)-4-hydroxy-N-((S)-1-(6-(4-methylthiazol-5-yl)pyridin-3-yl)ethyl)pyrrolidine-2-carboxamide] | – | 2.5 to 10 | > 75
8 | Cc1ncsc1-c1ccc([C@H](C)NC(=O)[C@@H]2C[C@@H](O)CN2C(=O)[C@H](c2cc(OCCCCN3CCN(CCCCOc4cc(N5C6CCC5CN(c5cc(-c7ccccc7O)nnc5N)C6)ccn4)CC3)no2)C(C)C)cc1 [compound 389, (2S,4R)-1-((2S)-2-(3-(4-(4-(4-((4-(3-(3-amino-6-(2-hydroxyphenyl)pyridazin-4-yl)-3,8-diazabicyclo[3.2.1]octan-8-yl)pyridin-2-yl)oxy)butyl)piperazin-1-yl)butoxy)isoxazol-5-yl)-3-methylbutanoyl)-4-hydroxy-N-((S)-1-(4-(4-methylthiazol-5-yl)phenyl)ethyl)pyrrolidine-2-carboxamide] | – | 10 to 30 | > 75
9 | Cc1ncsc1-c1ccc([C@H](C)NC(=O)[C@@H]2C[C@@H](O)CN2C(=O)[C@@H](c2cc(OCCCCN3CCN(CCCCOc4cc(N5C6CCC5CN(c5cc(-c7ccccc7O)nnc5N)C6)ccn4)CC3)no2)C(C)C)cc1 [compound 390, (2S,4R)-1-((2R)-2-(3-(4-(4-(4-((4-(3-(3-amino-6-(2-hydroxyphenyl)pyridazin-4-yl)-3,8-diazabicyclo[3.2.1]octan-8-yl)pyridin-2-yl)oxy)butyl)piperazin-1-yl)butoxy)isoxazol-5-yl)-3-methylbutanoyl)-4-hydroxy-N-((S)-1-(4-(4-methylthiazol-5-yl)phenyl)ethyl)pyrrolidine-2-carboxamide] | – | < 2.5 | > 75
10 | Cc1ncsc1-c1ccc([C@H](C)NC(=O)[C@@H]2C[C@@H](O)CN2C(=O)[C@H](c2cc(OC/C=C/c3ncc(O[C@H]4C[C@H](Oc5cc(N6C7CCC6CN(c6cc(-c8ccccc8O)nnc6N)C7)ccn5)C4)cn3)no2)C(C)C)cc1 [compound 391, (2S,4R)-1-((2S)-2-(3-(((E)-3-(5-((1r,3S)-3-((4-(3-(3-amino-6-(2-hydroxyphenyl)pyridazin-4-yl)-3,8-diazabicyclo[3.2.1]octan-8-yl)pyridin-2-yl)oxy)cyclobutoxy)pyrimidin-2-yl)allyl)oxy)isoxazol-5-yl)-3-methylbutanoyl)-4-hydroxy-N-((S)-1-(4-(4-methylthiazol-5-yl)phenyl)ethyl)pyrrolidine-2-carboxamide] | – | > 30 | –
11 | Cc1ncsc1-c1ccc([C@H](C)NC(=O)[C@@H]2C[C@@H](O)CN2C(=O)[C@@H](c2cc(OC/C=C/c3ncc(O[C@H]4C[C@H](Oc5cc(N6C7CCC6CN(c6cc(-c8ccccc8O)nnc6N)C7)ccn5)C4)cn3)no2)C(C)C)cc1 [compound 392, (2S,4R)-1-((2R)-2-(3-(((E)-3-(5-((1r,3R)-3-((4-(3-(3-amino-6-(2-hydroxyphenyl)pyridazin-4-yl)-3,8-diazabicyclo[3.2.1]octan-8-yl)pyridin-2-yl)oxy)cyclobutoxy)pyrimidin-2-yl)allyl)oxy)isoxazol-5-yl)-3-methylbutanoyl)-4-hydroxy-N-((S)-1-(4-(4-methylthiazol-5-yl)phenyl)ethyl)pyrrolidine-2-carboxamide] | – | < 2.5 | > 75
12 | Cc1nccn1-c1ccc([C@H](C)NC(=O)[C@@H]2C[C@@H](O)CN2C(=O)[C@H](c2cc(OCC#Cc3ncc(O[C@H]4C[C@H](Oc5cc(N6C7CCC6CN(c6cc(-c8ccccc8O)nnc6N)C7)ccn5)C4)cn3)no2)C(C)C)cc1 [compound 393, (2S,4R)-1-((2S)-2-(3-((3-(5-((1r,3S)-3-((4-(3-(3-amino-6-(2-hydroxyphenyl)pyridazin-4-yl)-3,8-diazabicyclo[3.2.1]octan-8-yl)pyridin-2-yl)oxy)cyclobutoxy)pyrimidin-2-yl)prop-2-yn-1-yl)oxy)isoxazol-5-yl)-3-methylbutanoyl)-4-hydroxy-N-((S)-1-(4-(2-methyl-1H-imidazol-1-yl)phenyl)ethyl)pyrrolidine-2-carboxamide] | – | > 30 | > 75
13 | Cc1nccn1-c1ccc([C@H](C)NC(=O)[C@@H]2C[C@@H](O)CN2C(=O)[C@@H](c2cc(OCC#Cc3ncc(O[C@H]4C[C@H](Oc5cc(N6C7CCC6CN(c6cc(-c8ccccc8O)nnc6N)C7)ccn5)C4)cn3)no2)C(C)C)cc1 [compound 394, (2S,4R)-1-((2R)-2-(3-((3-(5-((1r,3R)-3-((4-(3-(3-amino-6-(2-hydroxyphenyl)pyridazin-4-yl)-3,8-diazabicyclo[3.2.1]octan-8-yl)pyridin-2-yl)oxy)cyclobutoxy)pyrimidin-2-yl)prop-2-yn-1-yl)oxy)isoxazol-5-yl)-3-methylbutanoyl)-4-hydroxy-N-((S)-1-(4-(2-methyl-1H-imidazol-1-yl)phenyl)ethyl)pyrrolidine-2-carboxamide] | – | < 2.5 | > 75

— patent US12539292B2, “BRM targeting compounds and associated methods of use” (Arvinas Operations, Inc., priority 2018, dated 2026)
